The source of these data is US4831051A, “Aromatic derivatives comprising an aminoalkoxy chain, the salts thereof, the process for preparing these derivatives and salts and the application thereof in therapeutics” (Delande S.A., priority 1981, dated 1989).

The data set in a line: acute toxicity estimated on mice (method of MILLER and TAINTER). The note with it: mouse, in vivo, iv.
The term LD50 denotes the dose at which mortality reaches 50%. In the case of `COc1ccc(OC)c(C(=O)CCc2ccc(O)cc2)c1OCCN1CCCCC1` [compound 2], the 50% lethal dose (LD50) is 14 mg/kg.

`COc1ccc(OC)c(C(O)CCc2ccccc2)c1OCCN1CCCCC1` (stereo not shown) [compound 3]: the LD50 was 16 mg/kg.

With `COc1ccc(OC)c(C(O)CCc2ccc(F)cc2)c1OCCN1CCCCC1` (stereo not shown) [compound 4], the LD50 is 31 mg/kg.

`COc1ccc(OC)c(C(O)CCc2ccc(Cl)cc2)c1OCCN1CCCCC1` (stereo not shown) [compound 5]: the LD50 was 33 mg/kg.

Consider `COc1ccc(OC)c(C(O)CCc2ccc(C)cc2)c1OCCN1CCCCC1` (stereo not shown) [compound 6], for which the LD50 is 31 mg/kg.

`COc1ccc(CCC(O)c2c(OC)ccc(OC)c2OCCN2CCCCC2)cc1` (stereo not shown) [compound 7]: the LD50 is 27 mg/kg.

With `COc1ccc(OC)c(C(O)CCc2ccccc2O)c1OCCN1CCCCC1` (stereo not shown) [compound 8], the LD50 is 12 mg/kg.

Turning to `COc1ccc(OC)c(C(O)CCc2cccc(O)c2)c1OCCN1CCCCC1` (stereo not shown) [compound 9], the LD50 is 11 mg/kg.

For the molecule `COc1ccc(OC)c(C(O)CCc2ccc(O)cc2)c1OCCN1CCCCC1` (stereo not shown) [compound 10], the LD50 was 20 mg/kg.

Take `COc1ccc(OC)c(C(O)CCc2ccc(O)cc2)c1OCCCN1CCCCC1` (stereo not shown) [compound 11]: the LD50 was 22 mg/kg.

In the case of `CCN(CC)CCOc1c(OC)ccc(OC)c1C(O)CCc1ccc(O)cc1` (stereo not shown) [compound 12], the LD50 was 23 mg/kg.

Take `COc1ccc(OC)c(C(O)CCc2ccc(O)cc2)c1OCCN1CCCC1` (stereo not shown) [compound 13]: the LD50 is 27 mg/kg.

On to `COc1cc(OC)c(C(O)CCc2ccc(O)cc2)c(OCCN2CCCCC2)c1OC` (stereo not shown) [compound 14], for which the LD50 is 33 mg/kg.

With `COc1cc(OC)c(CCCc2ccc(O)cc2)c(OCCN2CCCCC2)c1` [compound 60], the LD50 was 8.9 mg/kg.

Consider `CCCN(CCC)CCOc1c(OC)ccc(OC)c1C(O)CCc1ccc(O)cc1` (stereo not shown) [compound 62], for which the LD50 was 13 mg/kg.

On to `COc1c2c(c(OC)c(C(O)CCc3ccc(O)cc3)c1OCCN1CCCCC1)OCCO2` (stereo not shown) [compound 66], for which the LD50 was 15.7 mg/kg.

As for `COc1c(OC)c(OC)c(C(O)CCc2ccc(O)cc2)c(OCCN2CCCCC2)c1OC` (stereo not shown) [compound 67], the LD50 is 32.5 mg/kg.

Regarding `COc1c(OCCN2CCCCC2)c(C(O)CCc2ccc(O)cc2)c(OC)c2ccccc12` (stereo not shown) [compound 68, 3-parahydroxyphenyl 1-[3-(2-piperidino)ethoxy 1,4-dimethoxynaphtalenyl-2]propanol-1, hydrated], the LD50 was 12.3 mg/kg.

On to `COc1cc(Cl)c(OC)c(OCCN2CCCCC2)c1C(O)CCc1ccc(O)cc1` (stereo not shown) [compound 69], for which the median lethal dose (LD50) is 8.6 mg/kg.

Consider `CCN(CC)CCOc1c(OC)c(Cl)cc(OC)c1C(O)CCc1ccc(O)cc1` (stereo not shown) [compound 70], for which the LD50 was 14 mg/kg.

In the case of `COc1cc(Cl)c(OC)c(OCCN(C(C)C)C(C)C)c1C(O)CCc1ccc(O)cc1` (stereo not shown) [compound 71], the LD50 was 11.5 mg/kg.

With `COc1cc(F)c(OC)c(OCCN2CCCCC2)c1C(O)CCc1ccc(O)cc1` (stereo not shown) [compound 72], the LD50 is 3.4 mg/kg.

For `COc1cc(Cl)c(OC)c(C(O)CCc2ccc(O)cc2)c1OCCN1CCCCC1` (stereo not shown) [compound 73], the 50% lethal dose (LD50) was 11.7 mg/kg.

`COc1cc([N+](=O)[O-])c(OC)c(C(O)CCc2ccc(O)cc2)c1OCCN1CCCCC1` (stereo not shown) [compound 74]: the 50% lethal dose (LD50) was 18.6 mg/kg.

On to `CC(C)(Cc1ccc(O)cc1)C(O)c1ccccc1OCCN1CCCCC1` (stereo not shown) [compound 77], for which the 50% lethal dose (LD50) was 43 mg/kg.
